# In ChEMBL document CHEMBL1201862, “PubChem BioAssay data set” (2004):
# Active and inactive are the calls of the source.
# How the values were obtained:
# [1] = Trypanosoma cruzi growth suppression in host cells – NIH3T3 host cells, beta-gal luminescence, confirmation (AID 2044); type: functional, cell-based;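 also: intracellular parasites grown in NIH/3T3 mouse fibroblasts as host cells; luminescent beta-galactosidase reporter signal from transgenic T. cruzi replicating inside host cells; inhibitors lower the luminescence signal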
# [2] = target: T1, Oxysterols receptor LXR-beta (Homo sapiens, UniProt P55055); type: functional, cell-based;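 also: Cell-based luminescence dose-response assay of agonist activity at LXR, run as a confirmatory counterscreen to a daf-12 agonist screen; HEK293 cells with Gal4-LXR fusion and GAL4-driven luciferase reporter; agonist potency from rising luciferase signal of a Gal4-LXR reporter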
# T1 sequence (P55055 whole entry): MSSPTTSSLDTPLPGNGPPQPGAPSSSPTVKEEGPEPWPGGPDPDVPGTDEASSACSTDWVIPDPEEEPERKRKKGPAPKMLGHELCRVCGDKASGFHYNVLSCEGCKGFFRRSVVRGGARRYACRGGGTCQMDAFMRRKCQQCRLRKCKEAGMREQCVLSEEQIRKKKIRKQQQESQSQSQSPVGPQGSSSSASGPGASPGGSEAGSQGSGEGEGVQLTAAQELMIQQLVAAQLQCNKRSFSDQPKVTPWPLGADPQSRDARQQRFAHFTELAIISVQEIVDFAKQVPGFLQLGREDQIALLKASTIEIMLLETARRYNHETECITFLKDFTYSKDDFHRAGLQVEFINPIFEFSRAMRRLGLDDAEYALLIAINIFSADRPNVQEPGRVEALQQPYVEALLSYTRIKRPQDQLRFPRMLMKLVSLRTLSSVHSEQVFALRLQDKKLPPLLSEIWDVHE
# [3] = target: T2, Heat shock factor protein 1 (Mus musculus, UniProt P38532); assay: decrease of HSF1-responsive luciferase luminescence – cell-based, NIH3T3, dose retest, confirmation (AID 2382); type: functional;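 also: NIH3T3 fibroblasts with HSF1-driven luciferase reporter stressed by proteasome inhibitor MG132; luminescence from HSF1-driven luciferase expression after 8 hours of MG132 stress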
# T2 sequence (P38532 whole entry): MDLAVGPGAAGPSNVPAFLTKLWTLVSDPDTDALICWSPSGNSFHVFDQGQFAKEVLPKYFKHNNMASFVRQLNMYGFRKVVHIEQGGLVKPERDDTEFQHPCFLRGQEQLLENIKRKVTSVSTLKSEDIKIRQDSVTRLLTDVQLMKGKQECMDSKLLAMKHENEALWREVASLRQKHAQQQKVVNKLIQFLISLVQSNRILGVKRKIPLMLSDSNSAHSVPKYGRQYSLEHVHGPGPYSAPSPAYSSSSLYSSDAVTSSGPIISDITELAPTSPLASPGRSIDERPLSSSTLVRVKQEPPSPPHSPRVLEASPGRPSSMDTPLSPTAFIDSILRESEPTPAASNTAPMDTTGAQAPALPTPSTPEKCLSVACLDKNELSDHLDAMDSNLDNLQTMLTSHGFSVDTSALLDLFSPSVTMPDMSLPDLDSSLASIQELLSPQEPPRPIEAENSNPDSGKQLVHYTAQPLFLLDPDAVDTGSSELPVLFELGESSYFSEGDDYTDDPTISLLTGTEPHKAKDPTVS
# [4] = fluconazole-exposed Candida albicans growth modulators – fluorescence, retest, confirmation (AID 2467); type: functional, cell-based
# [5] = target: Dual specificity tyrosine-phosphorylation-regulated kinase 1A (Rattus norvegicus, UniProt Q63470); type: biochemical, Homo sapiens
# [6] = NIH3T3 cell viability loss – ATP luminescence, mouse fibroblasts, counter-screen, dose response (AID 2010); type: functional, cell-based;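 also: cells exposed to compound for about 90 hours before reading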
# [7] = NIH-3T3 fibroblast cytotoxicity, dose response, cytotoxicity control, cell-based, fluorescence, Alamar Blue, secondary assay (AID 2327); type: functional;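 also: NIH-3T3 mouse fibroblasts cultured with fluconazole at 8 µg/mL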
# Mu-type opioid receptor = Mu-type opioid receptor (Homo sapiens, UniProt P35372); type: functional, cell-based;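 also: U2OS cells with beta-arrestin recruitment to OPRM1 by beta-gal complementation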
# Mu-type opioid receptor, sequence (P35372 whole entry): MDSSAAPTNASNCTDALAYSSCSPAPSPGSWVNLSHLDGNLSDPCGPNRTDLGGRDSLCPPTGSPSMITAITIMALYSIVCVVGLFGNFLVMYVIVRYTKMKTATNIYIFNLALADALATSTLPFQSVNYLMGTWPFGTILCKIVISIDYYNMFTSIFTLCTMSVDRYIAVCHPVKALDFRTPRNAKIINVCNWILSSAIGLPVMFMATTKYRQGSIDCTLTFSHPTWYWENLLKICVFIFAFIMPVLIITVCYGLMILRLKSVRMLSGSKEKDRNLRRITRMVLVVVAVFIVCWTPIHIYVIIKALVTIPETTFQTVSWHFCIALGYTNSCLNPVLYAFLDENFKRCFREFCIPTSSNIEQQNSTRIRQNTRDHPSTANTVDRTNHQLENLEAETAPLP
# [8] = target: 5-hydroxytryptamine receptor 2A (Mus musculus, UniProt P35363); type: functional, cell-based;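 also: CHO-K1 cells with tagged receptor and beta-arrestin; agonist potency measured as compound-induced activation of the receptor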
# 5-hydroxytryptamine receptor 2A, sequence (P35363 whole entry): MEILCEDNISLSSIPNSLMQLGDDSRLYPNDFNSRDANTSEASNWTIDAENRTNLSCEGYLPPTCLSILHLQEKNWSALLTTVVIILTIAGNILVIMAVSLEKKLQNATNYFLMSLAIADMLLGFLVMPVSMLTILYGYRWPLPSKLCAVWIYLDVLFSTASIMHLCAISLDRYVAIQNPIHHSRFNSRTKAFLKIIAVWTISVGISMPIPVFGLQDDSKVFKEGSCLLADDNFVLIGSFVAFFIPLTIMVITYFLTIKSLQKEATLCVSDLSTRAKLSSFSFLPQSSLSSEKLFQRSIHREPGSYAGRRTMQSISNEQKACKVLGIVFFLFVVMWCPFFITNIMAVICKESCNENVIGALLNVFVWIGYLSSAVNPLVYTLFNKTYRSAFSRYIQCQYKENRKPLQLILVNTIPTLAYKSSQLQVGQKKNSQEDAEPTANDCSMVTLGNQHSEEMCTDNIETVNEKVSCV
# [9] = target: ATP-dependent molecular chaperone HSP82 (Candida albicans (strain WO-1) (Yeast), UniProt C4YTQ8); assay: steroid-induced GRE reporter decrease in yeast – S. cerevisiae, luminescence, Hsp90 inhibitor project, dose response (AID 2400); type: functional, cell-based;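 also: beta-galactosidase luminescence from glucocorticoid response element reporter as proxy for Hsp90 function; inhibitor potency where signal loss means Hsp90 inhibition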
# ATP-dependent molecular chaperone HSP82, sequence (C4YTQ8 whole entry): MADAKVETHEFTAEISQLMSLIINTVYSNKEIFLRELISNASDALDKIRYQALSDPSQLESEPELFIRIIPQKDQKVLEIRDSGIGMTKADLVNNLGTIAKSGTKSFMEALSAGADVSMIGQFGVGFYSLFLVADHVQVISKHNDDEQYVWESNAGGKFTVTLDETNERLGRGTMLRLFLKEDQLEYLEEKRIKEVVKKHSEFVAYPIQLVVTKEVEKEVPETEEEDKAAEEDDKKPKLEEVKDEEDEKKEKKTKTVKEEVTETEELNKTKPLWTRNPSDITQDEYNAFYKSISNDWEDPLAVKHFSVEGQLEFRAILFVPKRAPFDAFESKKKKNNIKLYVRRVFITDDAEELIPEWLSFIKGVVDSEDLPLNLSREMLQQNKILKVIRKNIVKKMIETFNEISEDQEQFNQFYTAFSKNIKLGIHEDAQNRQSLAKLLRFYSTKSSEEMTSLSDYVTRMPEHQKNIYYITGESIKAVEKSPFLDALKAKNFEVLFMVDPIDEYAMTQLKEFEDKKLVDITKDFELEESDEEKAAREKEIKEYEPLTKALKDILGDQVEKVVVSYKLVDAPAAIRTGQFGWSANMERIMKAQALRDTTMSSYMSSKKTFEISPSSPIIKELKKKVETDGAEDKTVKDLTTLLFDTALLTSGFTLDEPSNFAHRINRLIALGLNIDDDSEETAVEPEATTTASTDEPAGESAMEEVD
# [10] = target: T3, Serine/threonine-protein phosphatase (Candida dubliniensis (strain CD36 / CBS 7987 / NCPF 3949 / NRRLY-17841) (Yeast), UniProt B9W6M3); assay: blockers of CaCl2-induced CDRE-lacZ signaling – S. cerevisiae, luminescence, secondary, dose response (AID 2388); type: functional, cell-based;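 also: yeast reporter cells carrying a calcineurin-responsive lacZ construct stimulated with calcium chloride; luminescent beta-galactosidase reporter signal in whole cells rather than isolated phosphatase activity; potency for inhibition where a drop in reporter signal means calcineurin blockade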
# T3 sequence (B9W6M3 whole entry): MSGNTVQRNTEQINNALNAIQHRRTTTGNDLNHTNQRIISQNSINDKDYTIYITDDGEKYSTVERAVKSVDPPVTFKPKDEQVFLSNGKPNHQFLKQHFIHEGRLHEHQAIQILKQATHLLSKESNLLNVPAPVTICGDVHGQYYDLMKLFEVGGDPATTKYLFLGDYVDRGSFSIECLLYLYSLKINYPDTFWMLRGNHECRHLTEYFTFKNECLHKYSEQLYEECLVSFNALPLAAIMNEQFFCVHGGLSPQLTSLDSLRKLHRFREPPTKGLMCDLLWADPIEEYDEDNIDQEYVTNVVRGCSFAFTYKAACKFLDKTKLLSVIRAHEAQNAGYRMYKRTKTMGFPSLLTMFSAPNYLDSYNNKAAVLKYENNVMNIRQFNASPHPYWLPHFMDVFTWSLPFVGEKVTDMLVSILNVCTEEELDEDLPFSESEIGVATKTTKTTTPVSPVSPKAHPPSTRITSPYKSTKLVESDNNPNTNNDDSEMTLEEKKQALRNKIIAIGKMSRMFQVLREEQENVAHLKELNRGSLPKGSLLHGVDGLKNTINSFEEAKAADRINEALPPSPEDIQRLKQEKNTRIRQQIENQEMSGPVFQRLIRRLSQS
# [11] = Luminescence Cell-Based Dose Retest to Confirm Inhibitors of Cancer Stem Cells. [Related pubchem assays (depositor defined):AID2717, AID2721]; type: functional; conditions: Homo sapiens
# Escherichia coli = assay: microbe, parasite or virus in culture
# HeLa = assay: ATP-based viability loss in HeLa cells – cell-based, CellTiter-Glo luminescence, cherry-pick samples, cytotoxicity control for MITF activator project, dose response (AID 540259); type: functional; conditions: Homo sapiens
# [12] = target: FAD-linked sulfhydryl oxidase ALR (Homo sapiens, UniProt P55789); assay: ALR-catalysed DTT oxidation blockers – biochemical, H2O2 detection, luminescence, cherry-pick, dose response (AID 493248)
# FAD-linked sulfhydryl oxidase ALR, sequence (P55789 whole entry): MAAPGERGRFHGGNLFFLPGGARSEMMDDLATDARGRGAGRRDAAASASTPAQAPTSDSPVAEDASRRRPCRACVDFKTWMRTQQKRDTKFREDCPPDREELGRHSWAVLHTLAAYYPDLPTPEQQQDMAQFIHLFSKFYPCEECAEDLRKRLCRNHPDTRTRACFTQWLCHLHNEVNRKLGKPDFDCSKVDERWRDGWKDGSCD
# H4 = assay: Luminescence Cell-Based Dose Response HTS to Identify Activators of 5'UTR Stem-Loop Driven Prion Protein mRNA Translation in H4 Neuroglioblastoma Cells. [Related pubchem assays: 1829 (Project Summary), 1814 (Primary HTS)]; type: functional; conditions: Homo sapiens
# [13] = Luminescence Cell-Based Dose Response HTS to Identify Activators of Luciferase Translation or Activity in H4 […] Cells. [Related pubchem assays: 1829 (Project Summary), 1814 (Primary HTS)]; type: functional
# Aminopeptidase N = target: T4, Aminopeptidase N (Plasmodium falciparum FcB1/Columbia, UniProt O96935); assay: malaria alanyl aminopeptidase activity blockers – biochemical, fluorogenic H-Leu-NHMec substrate, 1536-well (AID 1445); set-up: species or system Plasmodium falciparum 3D7, 3D7
# T4 sequence (O96935 whole entry): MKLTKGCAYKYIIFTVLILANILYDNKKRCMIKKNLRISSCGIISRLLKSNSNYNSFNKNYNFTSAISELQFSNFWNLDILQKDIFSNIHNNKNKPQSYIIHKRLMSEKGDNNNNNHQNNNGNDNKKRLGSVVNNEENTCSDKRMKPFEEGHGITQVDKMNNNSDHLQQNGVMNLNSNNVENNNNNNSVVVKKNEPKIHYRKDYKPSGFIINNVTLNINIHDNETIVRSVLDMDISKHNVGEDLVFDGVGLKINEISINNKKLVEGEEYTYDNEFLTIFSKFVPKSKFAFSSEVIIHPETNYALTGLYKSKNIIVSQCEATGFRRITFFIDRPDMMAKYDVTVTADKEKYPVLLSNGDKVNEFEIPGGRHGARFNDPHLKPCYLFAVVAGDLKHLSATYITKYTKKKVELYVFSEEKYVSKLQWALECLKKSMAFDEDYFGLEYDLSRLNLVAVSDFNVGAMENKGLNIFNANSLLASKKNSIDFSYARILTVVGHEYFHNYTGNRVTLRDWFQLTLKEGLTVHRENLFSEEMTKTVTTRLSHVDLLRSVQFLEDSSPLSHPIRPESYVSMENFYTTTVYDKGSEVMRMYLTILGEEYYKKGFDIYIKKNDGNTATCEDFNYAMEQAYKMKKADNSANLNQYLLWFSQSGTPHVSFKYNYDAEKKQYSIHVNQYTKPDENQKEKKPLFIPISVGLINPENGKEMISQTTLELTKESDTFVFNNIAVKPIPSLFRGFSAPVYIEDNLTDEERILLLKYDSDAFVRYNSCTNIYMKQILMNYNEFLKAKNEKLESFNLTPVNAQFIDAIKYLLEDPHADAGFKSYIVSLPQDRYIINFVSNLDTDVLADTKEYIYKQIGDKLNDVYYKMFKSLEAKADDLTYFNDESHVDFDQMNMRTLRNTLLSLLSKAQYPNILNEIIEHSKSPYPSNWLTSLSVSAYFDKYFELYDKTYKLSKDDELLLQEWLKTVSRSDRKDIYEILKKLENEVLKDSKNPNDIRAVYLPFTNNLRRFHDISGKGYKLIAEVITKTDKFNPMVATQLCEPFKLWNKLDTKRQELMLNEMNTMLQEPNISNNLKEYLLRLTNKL
smiles,measurement,setting,value
C(=N\NC1=Nc2cccc3cccc1c23)/c1ccccn1,EC50,[1],0.619 µM (active)
same,EC50,[2],> 67.5 µM (inactive)
same,EC50,[3],3.2 µM (active)
same,EC50,[4],1.05 µM (active)
same,AC50,[5],9.7 µM (active)
same,EC50,[6],> 60 µM (not active)
same,EC50,cells,> 67.5 µM (inactive)
same,EC50,[7],2.55 µM (inconclusive)
Oc1ccc(C2=CCNCC2)cc1O,EC50,Mu-type opioid receptor,92.4 µM (inactive)
same,EC50,[8],0.0242 µM (active)
O=[N+]([O-])c1cccc(-c2cc(-c3cc(Br)ccc3O)n[nH]2)c1,EC50,[4],0.954 µM (active)
same,EC50,[9],11.9 µM (active)
same,EC50,[7],19 µM (inconclusive)
same,EC50,[10],> 180 µM (inactive)
same,AC50,[11],2.03 µM (active)
CCc1ccc(N2CC(C(=O)N3CCN(c4ccccn4)CC3)CC2=O)cc1 (centres undefined),AC50,Escherichia coli,29.9 µM (active)
Nc1c(C(=O)O)ccc2c1C(=O)c1ccccc1C2=O,AC50,[5],1.28 µM (active)
Nc1ccc2oc(-c3cccs3)nc2c1,AC50,HeLa,168 µM (active)
same,AC50,[12],0.155 µM (active)
CC(C)c1ccc(/C=N/NC(=O)C2CCCC2)cc1,EC50,H4,2.72 µM (active)
same,EC50,[13],8.02 µM (active)
same,AC50,HeLa,132 µM (active)
NS(=O)(=O)c1ccc(CCNC(=O)Cc2ccc(S(=O)(=O)N3CCCC3)s2)cc1,AC50,Escherichia coli,39.6 µM (active)
same,IC50,Aminopeptidase N,8.91 µM (active)
